Common to all, as to assay type: in vivo
The nature of data set [1]: Pharmacokinetic test and evaluation in beagle dogs. The settings on record: dog, po; male beagle dogs, gavage 2 mg/kg, plasma, n = 4, mean. As to the method:
Pharmacokinetic Test and Evaluation in Beagle Dogs
After male beagle dogs weighing about 6-7 Kg were fasted overnight, the beagle dogs were gavaged with 2 mg/kg of a solution of the compound of the present invention [CMC/TW80 as a carrier]. Blood was collected 0.5, 1.0, 2.0, 4.0, 6.0, 8.0, 12 and 24 h after the administration of the compound of the present invention, respectively, and the concentration of the compound of the present invention in plasma was determined by LC/MS/MS.

A short description of data set [2]: Pharmacokinetic test and evaluation in mice. The following applies: mouse, po; male ICR mice, gavage 2 mg/kg, plasma, n = 4, mean. As to the method:
Pharmacokinetic Test and Evaluation in Mice
After male ICR mice weighing about 20-30 g were fasted overnight, the mice were gavaged with 2 mg/kg of a solution of the compound of the present invention [CMC/TW80 as a carrier]. Blood was collected 0.5, 1.0, 2.0, 4.0, 6.0, 8.0, 12 and 24 h after the administration of the compound of the present invention, respectively, and the concentration of the compound of the present invention in plasma was determined by LC/MS/MS.

Data set [3] in a line: Pharmacokinetic test and evaluation in rats. The following applies: rat, po; male SD rats, gavage 2 mg/kg, plasma, n = 4, mean. As to the method:
Pharmacokinetic Test and Evaluation in Rats
After male SD rats weighing about 220 g were fasted overnight, the rats were gavaged with 2 mg/kg of a solution of the compound of the present invention [CMC/TW80 as a carrier]. Blood was collected 0.5, 1.0, 2.0, 4.0, 6.0, 8.0, 12 and 24 h after the administration of the compound of the present invention, respectively, and the concentration of the compound of the present invention in plasma was determined by LC/MS/MS.

Data set [4] deals with mouse colon cancer cells CT26.WT. The data set is described as follows: Pharmacodynamic test of anti-tumor activity, subcutaneous transplantation cancer model CT26.WT. The settings on record: CT26.WT subcutaneous in nude mice; for TV (mm^3) (Tumor Volume) Day 0: Day 0 (baseline at grouping), 30 mg/Kg daily gavage; for % TGI (Tumor Growth Inhibition) / TV (mm^3) (Tumor Volume) Day 17: Day 17, 30 mg/Kg daily gavage. As to the method:
Pharmacodynamic Test and Evaluation of Anti-Tumor Activity
1. Subcutaneous Transplantation Cancer Model CT26.WT
5×10^5/100 uL of mouse colon cancer cells CT26.WT were subcutaneously inoculated into the right back of nude mice. The mice were monitored daily for health condition, and the measurement was started when tumors grew to be palpable. The tumor volume was calculated by adopting the following formula: 0.5×L×W^2, wherein L and W represent tumor length and width, respectively. When the tumor grew to about 50 mm^3, the mice were randomly grouped. The mice were gavaged daily with a solution of the compound at a corresponding dose (30 mg/Kg) [CMC/TW80 as a carrier], and at the same time, the general state of the mice was monitored. After the administration was started, the mice were weighed twice in the first week, and the tumor volume was measured twice; from the second week, the mice were weighed three times a week, and the tumor volume was measured three times.

As a reminder, the AUC(0-t) is the area under the concentration-time curve up to a stated or last time point. As usually defined, the Cmax is the maximum level reached in the sampled fluid or tissue. In data set [1], `C[C@@H](CO)NC(=O)c1cc(-c2ccc(Cl)cc2)nn(-c2cnn(C)c2)c1=O` [BAY-2416964, reference compound] showed an AUC(0-t) of 995 ng·h/mL and a Cmax of 211 ng/mL. In data set [2], this molecule had an AUC(0-t) of 1490 ng·h/mL and a Cmax of 348 ng/mL. In data set [3], the AUC(0-t) amounted to 624 ng·h/mL and the concentration peaked (Cmax) at 99.5 ng/mL. In addition, in data set [4], the “TV (mm^3) (Tumor Volume) Day 0” value is reported as 55.81 mm^3, the “% TGI (Tumor Growth Inhibition)” value is on record as 24.7% and the “TV (mm^3) (Tumor Volume) Day 17” value is given as 1670.91 mm^3.
In data set [2], `[2H]C([2H])([2H])n1cc(-n2nc(-c3ccc(Cl)cc3)cc(C(=O)N[C@@H](C)CO)c2=O)cn1` [Example 2, (S)-6-(4-chlorophenyl)-N-(1-hydroxypropan-2-yl)-2-(1-(methyl-d3)-1H-pyrazole-4-yl)-3-oxo-2,3-dihydropyridazine-4-carboxamide] yielded an AUC(0-t) of 850 ng·h/mL and a Cmax of 241 ng/mL. Moreover, in data set [3], the AUC(0-t) came to 990 ng·h/mL and the Cmax came to 146 ng/mL.
For `[2H]C([2H])(O)[C@H](C)NC(=O)c1cc(-c2ccc(Cl)cc2)nn(-c2cnn(C)c2)c1=O` [Example 7, (S)-6-(4-chlorophenyl)-N-(1-hydroxypropan-2-yl-1,1-d2)-2-(1-methyl-1H-pyrazole-4-yl)-3-oxo-2,3-dihydropyridazine-4-carboxamide], the values for the AUC(0-t) in data set [2] and in data set [3] were 2460 ng·h/mL and 736 ng·h/mL, respectively. Also, the Cmax in data set [2] turned out to be 351 ng/mL; in data set [3], 96.6 ng/mL.
Turning to `[2H]C([2H])(O)[C@H](C)NC(=O)c1cc(-c2ccc(Cl)cc2)nn(-c2cnn(C([2H])([2H])[2H])c2)c1=O` [Example 8, (S)-6-(4-chlorophenyl)-N-(1-hydroxypropan-2-yl-1,1-d2)-2-(1-(methyl-d3)-1H-pyrazole-4-yl)-3-oxo-2,3-dihydropyridazine-4-carboxamide], in data set [1], the AUC(0-t) amounted to 1880 ng·h/mL and the Cmax came to 294 ng/mL. Further, in data set [2], the AUC(0-t) turned out to be 2620 ng·h/mL and the Cmax turned out to be 351 ng/mL. In data set [3], the AUC(0-t) is 1390 ng·h/mL and the Cmax was determined as 230 ng/mL. Also, in data set [4], the “TV (mm^3) (Tumor Volume) Day 0” value is reported as 55.68 mm^3, the “% TGI (Tumor Growth Inhibition)” value is on record as 50.5% and the “TV (mm^3) (Tumor Volume) Day 17” value is reported as 1117.93 mm^3.

Values taken from patent publication US20240002362A1, “DEUTERATED 2-ARYLHETEROCYCLE-3-OXO-2,3- DIHYDROPYRIDAZINE-4-CARBOXAMIDE INHIBITOR AND PREPARATION METHOD THEREFOR AND APPLICATION THEREOF” (Shanghai Zelgen Pharma. Tech Co., Ltd., priority 2020, published 2024).
